Results published in US20210055311A1, “SCREENING METHOD FOR ESTROGENIC AND ANTI-ESTROGENIC ACTIVITY” (BUNDESINSTITUT FÜR RISIKOBEWERTUNG, priority 2018, published 2021).

What was measured:
[1] = system: MCF7/vBOS cells (DSM ACC3321); assay: Prevention of fulvestrant-induced discontinuous adherens junctions by estrogenic compounds; format: cell-based, human; details: for prevention of the formation of discontinuous adherens junctions: along with 10^−8 M fulvestrant; for minimal concentration preventing the fulvestrant-induced phenotype: co-treatment with 10^−8 M fulvestrant, 48 h
Method: Briefly, MCF7/vBOS cells were grown on glass coverslips in multi-well tissue culture plates (TPP) for 24 h and then treated for 48 h with 0.1% EtOH (solvent control), the anti-estrogen fulvestrant in the fixed concentration of 10^−8 M and different concentrations (10^−10 M, 10^−9 M, 10^−8 M, 10^−7 M) of the ERα agonist 17β-estradiol. The solvent control was used as a positive control and fulvestrant at a concentration of 10^−8 M without 17β-estradiol addition was used as a negative control. Sample preparation and immunofluorescence microscopy was performed as described in example 2 above. After 48 hours the fraction of cells displaying discontinuous adherens junctions was determined by CellProfiler/CellProfer-analyst software (see example 7).
The same protocols as in example 2 were used with the following deviations: • Bisphenol A: Cells were grown for 24 h and then treated for 48 h with 10^−8 M fulvestrant and 10^−5 or 10^−4 M bisphenol A, respectively, diluted in DSMO. • Nonylphenol: Cells were grown for 24 h and then treated for 48 h with 10^−8 M fulvestrant and 10^−5 or 10^−4 nonylphenol, respectively, diluted in ethanol.
Briefly, cell culture, sample preparation and immunofluorescence microscopy was performed as described in example 2 (ERα signalling inhibition (fulvestrant titration)) and example 5 (ERα signalling restoration (fulvestrant at 10^−8 M in combination with 17β-estradiol titration))..
Subsequently, quantitative image analysis was performed using a pipeline that builds on the CellProfiler software (Carpenter et al., Genome Biol., 2006; 7(10):R100.) for segmentation and extraction of cellular parameters, and on the CellProfiler Analyst software (Jones et al., BMC Bioinformatics, 2008 Nov. 15; 9:482) for parameter-based classification of cells. In the segmentation process, primary objects (nuclei) were identified from DAPI staining by global thresholding using Otsu's method. Next, primary objects served as seeding points for identification of secondary objects (cell membranes) at a defined distance. Finally, tertiary objects (cytoplasm) were defined by subtracting primary from secondary objects. The resulting object masks were then applied to extract cellular parameters including area, shape, distribution and variation of pixel intensities, and mean intensity from the corresponding greyscale images using the CellProfiler MeasureObjectSizeShape, MeasureObjectRadialDistribution, MeasureTexture, and MeasureObjectIntensity modules, and stored in a database file. This database file was then imported into the Classifier module of the CellProfiler Analyst software for supervised training with a subset of cells, and subsequent parameter-based automatic classification of all cells within the entire image dataset. For immunofluorescence images, supervised training based on cell membrane features (E-Cad channel) was conducted with two classes representing continuous adherens junctions (Continuous AJs') and discontinuous adherens junctions (Discontinuous AJs′) (about 30 cells for each class). After the supervised training process had been completed, the entire image dataset from a specific experiment was evaluated and all identified cells were automatically classified into corresponding classes according to their individual parameters. The fraction of cells representing ‘Continuous AJs’ and ‘Discontinuous AJs’ classes were finally graphically represented in stacked bar plots.

[2] = system: MCF7/vBOS cells (DSM ACC3321); assay: Formation of discontinuous basolateral adherens junctions upon anti-estrogen exposure (E-Cadherin immunofluorescence); format: cell-based, human; details: for Concentration (M) suitable for manifestation of the discontinuous basolateral adherens junctions phenotype / Culture time (h) typically required for formation of discontinuous basolateral adherens junctions: cell as deposited under DSM ACC3321; for formation of discontinuous adherens junctions (E-Cadherin staining): concentration and incubation time per compound as in FIGS. 1-3
Description: The time usually required for formation of discontinuous basolateral adherens junctions will depend on the estrogen receptor binding affinity and concentration of the anti-estrogen used on the one hand and the cell used on the other hand, but a person skilled in the art will be readily capable of determining the appropriate time spans and concentration for a given anti-estrogen and cell. For example, if the cell is a cell as deposited under accession number DSM ACC3321, suitable concentration ranges and culture times for manifestation of the discontinuous basolateral adherens junctions phenotype in presence of fulvestrant, tamoxifen, ZK 164015, MPP dihydrochloride, and (Z)-4-hydroxytamoxifen, without being limited thereto, are:
MCF7/vBOS cells were grown on glass coverslips in multi-well tissue culture plates (TPP) for 24 h and then treated for at least 48 h with 0.1% EtOH (solvent control) and different concentrations (10^−11 M, 10^−10 M, 10^−9 M, 10^−8 M, 10^−7 M) of the ERα antagonist fulvestrant (Sigma-Aldrich, CAS-No. 129453-61-8). During experiments, medium was exchanged on a daily basis. All experiments were performed at 37° C. with 5% CO2 in reduced-serum medium (phenol red-free DMEM (Gibco), 5% FBS (Biochrom, S 0615, LOT1353 W), 1% glutamine, 100 μg/ml streptomycin/100 U/ml penicillin (Biochrom)).
After treatment with fulvestrant the adherens junction morphology of the cells was analysed by means of immunofluorescence microscopy. Briefly, cells were fixed with 3.7% formaldehyde in PBS for 15 min, permeabilized with 0.2% Triton X-100 in PBS for 30 min, and blocked with 5% FBS in PBS for 60 min (all steps at room temperature). Incubation with primary and secondary antibodies in PBS containing 1.5% BSA was carried out over night at 4° C. and for 1 h at room temperature, respectively. The following antibodies/dyes were used: anti-E-Cadherin (H-108, Santa Cruz); DAPI (Roche); secondary antibody conjugated to Cy3 (alternatives are, e.g.: Cy2, Alexa Fluor 488/555/647; all Invitrogen). The samples were then mounted in Dako fluorescence mounting medium (Dako) or VectaShield (Vector Labs). All images were acquired with an Axio Observer.Z1 widefield microscope equipped with an Apotome.2 device for optical sectioning using structured illumination (Zeiss). After 48 hours the fraction of cells displaying discontinuous adherens junctions was determined by CellProfiler/CellProfer-analyst software (see example 7).
In view of the results obtained with MCF7/vBOS cells upon exposure to fulvestrant the inventors speculated that a similar phenotype might be obtainable with other ERα antagonist as well. To test this hypothesis, the inventors used the ERα antagonists tamoxifen (Sigma-Aldrich, CAS-No. 10540-29-1), MPP dihydrochloride (Sigma-Aldrich, CAS-No. 911295-24-4), ZK164015 (Tocris, CAS-No. 177583-70-9), and (Z)-4-hydroxytamoxifen (Tocris, CAS-No. 68047-06-3). The same protocols as in example 2 were used with the following deviations: • Tamoxifen: Cells were grown for 24 h and then treated for 144 h with 10^−8 and 10^−6 M tamoxifen. • MPP dihydrochloride: Cells were grown for 24 h and then treated for 144 h with 10^−8 and 10^−6 M MPP dihydrochloride. • ZK164015: Cells were grown for 24 h and then treated for 48 h with 10^−9 and 10^−7 M ZK164015. • (Z)-4-hydroxytamoxifen: Cells were grown for 24 h and then treated for 72 h with 10^−9 and 10^−8 M (Z)-4-hydroxytamoxifen.
Subsequently, quantitative image analysis was performed using a pipeline that builds on the CellProfiler software (Carpenter et al., Genome Biol., 2006; 7(10):R100.) for segmentation and extraction of cellular parameters, and on the CellProfiler Analyst software (Jones et al., BMC Bioinformatics, 2008 Nov. 15; 9:482) for parameter-based classification of cells. In the segmentation process, primary objects (nuclei) were identified from DAPI staining by global thresholding using Otsu's method. […]

Molecule | fraction of cells with continuous adherens junctions (CellProfiler quantification) ([1]; 10^−8 M fulvestrant plus different concentrations, 48 hours) | prevention of the formation of discontinuous adherens junctions [1] | minimal concentration preventing the fulvestrant-induced phenotype [1] | Concentration (M) suitable for manifestation of the discontinuous basolateral adherens junctions phenotype [2] | Culture time (h) typically required for formation of discontinuous basolateral adherens junctions [2] [h] | formation of discontinuous adherens junctions (E-Cadherin staining) [2]
C[C@]12CC[C@@H]3c4ccc(O)cc4CC[C@H]3[C@@H]1CC[C@@H]2O [17β-estradiol] | restores the fraction of cells with continuous adherens junctions | prevention of the formation of discontinuous adherens junctions | 10^−9 M |  |  | 
CC/C(=C(\c1ccc(O)cc1)c1ccc(OCCN(C)C)cc1)c1ccccc1 [(Z)-4-hydroxytamoxifen] |  |  |  | 10^−9-10^−7 M | 48 to 144 | Discontinuous adherens junctions became apparent
Cc1c(-c2ccc(O)cc2)nn(-c2ccc(O)cc2)c1-c1ccc(OCCN2CCCCC2)cc1.Cl.Cl [MPP dihydrochloride] |  |  |  | 10^−6-10^−5 M | 30 to 168 | Discontinuous adherens junctions became apparent
CC/C(=C(\c1ccccc1)c1ccc(OCCN(C)C)cc1)c1ccccc1 [Tamoxifen] |  |  |  | 10^−6-10^−5 M | 30 to 168 | Discontinuous adherens junctions became apparent
CCCCCS(=O)(=O)CCCCCCCCCCn1c(-c2ccc(O)cc2)c(C)c2cc(O)ccc21 [ZK 164015] |  |  |  | 10^−7-10^−5 M | 24 to 96 | Discontinuous adherens junctions became apparent
CC(C)(c1ccc(O)cc1)c1ccc(O)cc1 [bisphenol A] |  | prevention of the formation of discontinuous adherens junctions | 10^−5 M |  |  | 
nonylphenol |  | prevention of the formation of discontinuous adherens junctions | 10^−5 M |  |  | 
